Experimental findings from the NIST ThermoML archive (doi:10.1016/j.fluid.2011.11.011) are described below.

This data set in a line: an = ratio of the nth substance listed. The note with it: 275 K, Pendant drop shape.

Numbers after ± are expanded uncertainties.

Usually surface tension liquid-gas stands for the force per length acting along the surface. For `O` [water] + CCCCCCCCCCCCOS(=O)(=O)[O-].[Li+], under “a2 = 0”, the surface tension liquid-gas is listed as 72.7 ± 2.3 mN/m.
In the case of `CCCCCCCCCCCCOS(=O)(=O)[O-].[Li+]` [lithium dodecyl sulfate] + O, the surface tension liquid-gas (a1 = 500) was determined as 56.6 ± 1.8 mN/m; the surface tension liquid-gas (a1 = 1000) came to 53.1 ± 1.7 mN/m; the surface tension liquid-gas (a1 = 2000) was 41.2 ± 1.3 mN/m; the surface tension liquid-gas (a1 = 2500) stood at 38.9 ± 1.2 mN/m; the surface tension liquid-gas (a1 = 3000) stood at 37.3 ± 1.2 mN/m; the surface tension liquid-gas (a1 = 3500) was found to be 37 ± 1.2 mN/m. Further, the surface tension liquid-gas runs as follows: (a1 = 4000) 36.7 ± 1.2 mN/m; (a1 = 5000) 36.7 ± 1.2 mN/m.
